Measured values from patent US8648047B2, “Methods and compositions for inhibition of multi-drug resistance by hyaluronan oligomers” (Tufts University, priority 2002, dated 2014).

Assays:
[1] = tested on: TA3/St murine mammary carcinoma cells; experiment: Apoptosis assay in suspension culture; type: cell-based, mouse; settings: 24 hours in suspension; 150 μg/ml controls, 50 nM wortmannin
Protocol: FIG. 3 is a bar graph showing induction of apoptosis by hyaluronan oligomers under anchorage-independent conditions. TA3/St murine mammary carcinoma cells were grown in suspension in serum-free medium for 24 hours in the presence of 50 or 150 μg/ml hyaluronan oligomers (o-HA), 150 μg/ml of ˜80 kDa molecular weight hyaluronan polymer (HA-80), 150 μg/ml chitin oligomers, 150 μg/ml chondroitin sulfate (CS), or 50 nM wortmannin (WM), a specific inhibitor of mammalian PI3 kinase (phosphoinositide 3-kinase). Apoptotic cells were then analyzed and counted as described in the EXAMPLES section. Results represent the average of two experiments and are expressed as percentage of total cells±range.
(§1) Treatment of tumor cells and preparation of cell lysates for biochemical assays. TA3/St and HCT116 cells were grown for 72 hours in 14 cm culture dishes, then harvested by trypsinization, washed in PBS and suspended in DMEM containing 10% FBS. Two million cells from these cultures were added to each well of non-adherent, Ultra-low cluster plates and incubated in suspension at 37° C. for a further 72 hours. […]
Apoptosis assay. […] Viable cells (green) and apoptotic cells containing fragmented nuclei (red) were counted and the percentage of apoptotic cells was then calculated.

[2] = tested on: caspase-3 activity in TA3/St murine mammary carcinoma cells; experiment: Caspase-3 assay; type: cell-based, mouse; settings: 150 μg/ml
Protocol: FIG. 4A is a bar graph showing stimulation of caspase-3 activity in TA3/St murine mammary carcinoma cells by hyaluronan oligomers. Cells were grown in suspension in serum-free medium for 24 hours in the presence of 10, 50 or 150 μg/ml hyaluronan oligomers (o-HA), 150 μg/ml chondroitin sulfate (CS), or 20 μM LY294002 (LY), a specific inhibitor of mammalian PI3 kinase, and then analyzed for caspase-3 activity. Results are presented as the mean of specific activity (absorbance at 405 nm/mg/90 min)±S.D. for three independent experiments.
as §1, with “hours. The cells from each well were then collected, washed in PBS, suspended in 5 ml DMEM medium containing 2% bovine serum albumin (Cohn Analog, Sigma), re-plated in the cluster plates, and incubated in suspension at 37° C. for 96 hours; similar results were obtained with pre-incubations of 24-96 hours for most measurements. The hyaluronan oligomers or other reagents were then added and the cells incubated for another 24 hours in suspension.” for “hours.”

[3] = tested on: caspase-3 activity in HCT116 human colon carcinoma cells; experiment: Caspase-3 assay; type: cell-based; settings: HCT116, 150 μg/ml
Protocol: Treatment of tumor cells and preparation of cell lysates for biochemical assays. TA3/St and HCT116 cells were grown for 72 hours in 14 cm culture dishes, then harvested by trypsinization, washed in PBS and suspended in DMEM containing 10% FBS. Two million cells from these cultures were added to each well of non-adherent, Ultra-low cluster plates and incubated in suspension at 37° C. for a further 72 hours. The cells from each well were then collected, washed in PBS, suspended in 5 ml DMEM medium containing 2% bovine serum albumin (Cohn Analog, Sigma), re-plated in the cluster plates, and incubated in suspension at 37° C. for 96 hours; similar results were obtained with pre-incubations of 24-96 hours for most measurements. The hyaluronan oligomers or other reagents were then added and the cells incubated for another 24 hours in suspension.
The cells treated as above were harvested by centrifugation at room temperature. The pellets were washed twice in PBS, then lysed in buffer containing 1% Nonidet P-40 and protease inhibitors. Cell lysis was achieved by vortexing for three cycles of 15 sec at high speed followed by cooling on ice. The lysate was centrifuged at 12,000×g for 15 min at 4° C. in an Eppendorf 5415R centrifuge. After measuring the protein content of the supernatant, it was flash-frozen in liquid nitrogen and stored at −80° C. until use in the assays below.
Caspase-3 assay. […]

[4] = tested on: α-isoform of PI3 kinase in TA3/St cells; experiment: PI3 kinase α isoform assay (immunoprecipitated); type: cell-based, mouse; settings: 150 μg/ml polysaccharide controls, 50 nM wortmannin
Protocol: (§3) PI3 kinase assay. For assay of total PI3 kinase, 250 ng of cell lysate protein were used per assay. Assays were performed in a 50 μl reaction mixture containing 0.001% Nonidet P-40, 159 μM ATP, 25 mM MgCl2, 5 mM EGTA, 150 μM ATP, 25 μCi of [γ-^32P] ATP, 125 mM MOPS, pH 7.0, and 0.2 mg/ml sonicated lipids containing phosphatidyl serine, phosphatidyl inositol and phosphatidyl inositol-4,5 bisphosphate in a 1:1:1 (v:v:v) ratio in sonication buffer (25 mM MOPS, pH 7.0, 1 mm EGTA) (Whitman, M. et al (1985) Nature 315, 239-242; Susa, M., et al. (1992) J Biol Chem 267, 22951-22956; Misra, S., et al. (1998) J Biol Chem 273, 26638-26644). The reactions were carried out at 37° C. for 20 min and stopped by addition of 100 μl of CH3OH/1M HCl (1:1). […] The organic layers were combined, dried under nitrogen, and analyzed by thin layer chromatography. ^32P-labeled phosphoinositides were resolved in water:acetic acid:n-propanol (34:1:65) and detected by autoradiography. ^32P incorporation into phosphatidylinositol 3,4,5-phosphate (PIP3) was quantified by liquid scintillation counting of thin layer chromatography spots scraped into and eluted in scintillation fluid.
(§4) For assay of specific PI3 kinase isoforms, whole cell lysates were incubated with antibody against the particular isoform plus protein A-Sepharose. PI3 kinase activity of the enzyme immobilized on beads was then measured as described above.

[5] = tested on: α-isoform of PI3 kinase in HCT116 cells; experiment: PI3 kinase α isoform assay (immunoprecipitated); type: cell-based, human; settings: same reagents as FIG. 5D
Protocol: as §3, §4

[6] = tested on: phosphorylated Akt in TA3/St cells; experiment: Akt phosphorylation, Western blotting; type: cell-based, mouse; settings: 150 μg/ml controls, 1:50 antibody to CD44 (FIG. 6C)
Protocol: FIG. 6A is a bar graph showing inhibition of Akt phosphorylation by hyaluronan oligomers in TA3/St murine mammary carcinoma cells treated in suspension with 1-150 μg/ml hyaluronan oligomers (o-HA) or 150 μg/mlchondroitin sulfate (CS). Cell lysates were then analyzed by Western blotting for phosphorylated Akt and quantified by densitometry. Results in A and B are presented as means of three independent experiments and expressed as percent untreated±S.D.
FIG. 6C is a representation of a Western blot of phosphorylated Akt from TA3/St cells: 1. untreated; 2. 150 μg/ml chondroitin sulfate; 3. 150 μg/ml hyaluronan polymer (mol. wt. ˜80 kDa); 4. 150 μg/ml chitin oligomers; 5. 50 μg/ml hyaluronan oligomers; 6. 150 μg/ml hyaluronan oligomers; 7. 50 nM wortmannin; 8. 20 μM LY294002; 9. 1:50 dilution of antibody against CD44. Results are representative of three experiments. Similar results to those in FIG. 6C were obtained also with HCT116 cells.
Treatment of tumor cells and preparation of cell lysates for biochemical assays. TA3/St and HCT116 cells were grown for 72 hours in 14 cm culture dishes, then harvested by trypsinization, washed in PBS and suspended in DMEM containing 10% FBS. […]
(§2) Immunoblotting. […] Immunoreactive bands were detected by enhanced chemiluminescence and the sizes of proteins were estimated using prestained molecular weight standards. Immunoreactive bands were quantified by densitometry. […]

[7] = tested on: PTEN in TA3/St cells; experiment: PTEN expression, immunoblotting; type: cell-based, mouse; settings: similar amounts (150 μg/ml) of controls
Protocol: FIG. 8A is a bar graph showing stimulation of expression of PTEN, a tumor suppressor, by HA-oligomers, in TA3/St murine mammary carcinoma cells. Cells were treated in suspension and then processed for immunoblotting of PTEN. The bars represent densitometric quantification of immunoblots after treatment with 10-150 μg/ml hyaluronan oligomers (o-HA) or 150 μg/ml chondroitin sulfate (CS). Results are presented as means of three independent experiments and expressed as percent untreated±S.D.
FIG. 8C is an immunoblot using TA3/St murine mammary carcinoma cells treated as in lanes: 1. untreated; 2. 150 μg/ml chondroitin sulfate; 3. 150 μg/ml chitin oligomers; 4. 150 μg/ml hyaluronan polymer (mol. wt. ˜80 kDa); 5. 50 μg/ml hyaluronan oligomers; 6. 150 μg/ml hyaluronan oligomers. Results are representative of three experiments. Similar results to FIG. 8C were obtained also with HCT116 cells.
PTEN levels in TA3/St mouse mammary carcinoma cells were measured by Western blotting; values were obtained by scanning the blots. HA oligomers (oligo) at 50-100 μg/ml caused ˜6-fold increase in PTEN levels compared to untreated control. […]
as §2

[8] = tested on: TA3/St murine mammary carcinoma cells; experiment: Proliferation in monolayer (anchorage-dependent) culture; type: cell-based, mouse; settings: 100-150 μg/ml
[9] = tested on: MCF-7/Adr drug-resistant human mammary carcinoma cells; experiment: Drug resistance, viable cell number (Coulter Counter); type: cell-based; settings: MCF-7/Adr; decoys introduced by adenovirus infection, or siRNA (FIG. 18)
Protocol: FIG. 15A is a line graph showing that MCF-7/Adr drug-resistant human mammary carcinoma cells grown in culture with hyaluronan oligomers are sensitized to doxorubicin. MCF-7/Adr cells were obtained from MCF-7 cells by being selected for drug resistance by exposure to doxorubicin. Cells were grown for 24 h in 24-well plates in RPMI 1640 medium containing Glutamex 1 plus 10% fetal bovine serum at 37° in 5% CO2. Various concentrations of doxorubicin (doxo) were then added and the cells incubated for another 72 h, followed by a further 24 h in the presence or absence of 100 μg/ml hyaluronan oligomers (o-HA). The oligomers were a mixed population of 3-8 repeating disaccharides in length. The cells were then harvested and the number of viable cells was determined in a Coulter Counter.
FIG. 18 is a set of line graphs showing a resulting cell number, on the ordinate, following drug treatment with doxorubicin, concentration (log) in nM on the abscissa, showing restoration of drug sensitivity (inhibition of drug resistance) by HA oligomers, soluble hyaluronan-binding decoys, and CD44 siRNA, using derivatives of MCF-7 cells as in FIG. 17 above.
Therefore, the effect of co-treatment with hyaluronan oligomers on drug resistance was examined in an established system, i.e. MCF-7/Adr human mammary carcinoma cells that have been selected for resistance to doxorubicin (Fairchild, C. R., et al., Cancer Res 47, 5141-8, 1987). First, the effect of hyaluronan oligomers on resistance to doxorubicin in the MCF-7/Adr cells versus the relatively drug-sensitive, parental MCF-7 cell line was compared.

[10] = tested on: TA3/St murine mammary carcinoma cells; settings: soft agar; TA3/St transfectant clones over-expressing the protein; cited from earlier work

| Substance | effect on apoptosis [1] | effect on caspase-3 activity [2] | effect on caspase-3 activity [3] | effect on PI3 kinase-α activity ([4]; 20 μM LY294002, 1:50 antibody to CD44) | effect on PI3 kinase-α activity ([4]; 20 μM LY294002, 1:50 antibody to CD44, listed as chondroitin sulfate (CS)) | effect on PI3 kinase-α activity [5] | effect on phosphorylation of Akt [6] | effect on PTEN levels [7] | effect on PTEN levels ([7]; listed as Chondroitin sulfate (CS)) | effect on proliferation [8] | reversal of doxorubicin resistance [9] | inhibition of anchorage-independent growth [10] |
| --- | --- | --- | --- | --- | --- | --- | --- | --- | --- | --- | --- | --- |
| chondroitin sulfate | do not have significant effects | no significant effect | no significant effect | Neither hyaluronan polymer, nor chondroitin sulfate, nor chitin oligomers had a significant effect | had no effect | Neither hyaluronan polymer, nor chondroitin sulfate, nor chitin oligomers had a significant effect | not caused | do not stimulate PTEN levels | did not increase PTEN levels | – | – | – |
| soluble CD44: hyaluronan-binding decoy, over-expressed in cells by transfection or adenovirus | – | – | – | – | – | – | – | – | – | Neither HA oligomers nor soluble CD44 significantly affect proliferation | reversed | effective inhibitor |
